# Reference: a melting point compilation (Tetko et al.; mined from patent text by program, amines drawn as free bases though some values may be those of a salt)
row,Compound,melting point [°C]
1,Cc1oc(-c2ccco2)nc1COc1ccc(COc2nn(Cc3ccccc3)cc2C=O)cc1Cl,158 to 159
2,COc1cc(C=NOCc2ccccc2)c([N+](=O)[O-])cc1OC,109 to 113
3,CS(=O)c1ccc(CCCCCCCCCCC(Cl)(Cl)C(=O)O)cc1 (centres undefined),75 to 76
4,CCc1nc(C(=O)c2ccc(Cl)cc2Cl)c(C(C)O)n1C(CC)CC (centres undefined),125 to 126
5,CC(C)(C)OC(=O)N1C[C@@H](C=O)CC1=O,120 to 122
6,O=S(=O)(Nc1cccnc1Nc1ccccc1)c1cccc(Cl)c1,143 to 144
7,c1ccc(CN2CCC3(CC2)SCCS3)cc1,51 to 53
8,CCCNC(=O)N1CCc2cc(S(=O)(=O)n3cc(-c4ccccc4)[nH]c3=O)ccc21,165 to 167
9,O=C(O)C(Cl)=C(Cl)C(=O)N(CCCl)CCCl,107 to 110
10,Nc1cc(OCCO)nc(N)n1,190
11,COc1ccc(C(=O)Nc2ccc(F)c(F)c2)cc1NS(=O)(=O)c1ccc(C#N)cc1,228 to 230
12,COc1cc(COc2nn(-c3ccccc3)cc2C=O)ccc1OCc1sc(-c2ccccc2)nc1C,171 to 172
13,CSC(=NS(=O)(=O)N1CCCCC1)N1CC(c2ccccc2)C(c2ccc(Cl)cc2)=N1 (centres undefined),192 to 194
14,Cc1nn(C)cc1C(=O)Nc1ccccc1-c1ccc(F)c(Cl)c1,177 to 180
15,CC(=O)N1CCc2cc(S(=O)(=O)n3c(CCCC(=O)O)cc4nc(Cl)ccc43)ccc21,226
16,Cn1ncnc1COc1nn2c(-c3ccccc3)nnc2cc1C12CCC(CC1)C2,244 to 246
17,C(OCC1CO1)C1CO1 (centres undefined),90 to 93
18,CC(C)(C)c1nc2c(Cl)ccc(-n3c(=O)cc(C(F)(F)F)n(N)c3=O)c2o1,104 to 106
19,CC(=O)Nc1nc(CCc2ccc(NC(=O)OC(C)(C)C)cc2)c(C(=O)NCc2ccccc2)s1,184 to 185
20,CCOC(=O)Cn1c(-c2ccccc2)nc2cccnc21,93 to 95
21,Cc1cc(OCC(=O)O)c(C(C)C)cc1SCc1sc(-c2ccc(C(F)(F)F)cc2)nc1C,168 to 171
22,COC1(C)CCc2c(C)c(OCc3ccccc3)c(C)c(C)c2O1 (centres undefined),70 to 72.5
23,ClC1c2ccccc2C=Cc2ccc(Br)cc21 (centres undefined),146
24,NC(=O)c1cc(Cl)c([N+](=O)[O-])cc1[N+](=O)[O-],201 to 203
25,C=Cc1ccc(Nc2c(C(=O)NOCCO)ccc(F)c2F)c(F)c1,134 to 137

row,Compound,melting point [°C]
1,CCCc1c(OCCCCCOc2ccccc2CCC(=O)O)ccc2c1OCCC2=O,75 to 76
2,O=C1NC(=O)c2c1c(-c1ccccc1Cl)cc1c2c2cc(O)ccc2n1CCSc1ccccc1,262 to 264
3,COc1c(N)nc(Cl)nc1Cl,155 to 156
4,Cc1ccc(-c2csc(/C=C/C(=O)Nc3ccc(CN(C)C4CCOCC4)cc3)c2)cc1,188 to 190
5,O=C1Nc2ccccc2N(C(=O)N2CCCC(CCCN3CCCCC3)C2)c2ncccc21 (centres undefined),166 to 167
6,CS(=O)c1cc(CCC(=O)O)cc(-c2nc(=O)c3ccccc3s2)n1 (centres undefined),266
7,CN(C)C1(c2ccccc2)CCC(=CC(=O)NCc2ccccc2)CC1 (centres undefined),145 to 148
8,CN1CCN(C(=O)OC2c3ccccc3C(=O)N2c2ccc3cnccc3n2)CC1 (centres undefined),215
9,CC(C)c1ccc(N(Cc2ccc(N(C)C)cc2)C(=O)C2CCOc3cc(O)ccc32)cc1 (centres undefined),173
10,Cc1csc2[nH]c(=O)oc(=O)c12,220
11,OCCOC(c1ccccc1)c1ccccc1,95 to 97
12,CC(C)(C)c1nc2cc(N3CCSCC3)c(N=C=S)cc2s1,155 to 159
13,COc1cc(O)cc(Cc2cnc(N)nc2N)c1,246 to 248
14,Cc1c(C(=O)C=Cc2ccccc2F)c2ccccc2n1CCN1CCOCC1,113 to 116
15,COc1cn(-c2cc(N3CCCC3=O)ccc2F)nc(-c2ccnn2-c2ccccc2)c1=O,171 to 174
16,COc1cc(N2[C@H](C)C[C@](C)(O)[C@@H]2C)ccc1C#N,121 to 123
17,NC(=O)c1c(Cl)c(Cl)c(Cl)c(Cl)c1C(=O)O,113 to 114
18,C=CC(=O)c1ccc(OC(=O)c2ccc(C#N)cc2)cc1,122
19,CON(C)C(=O)c1ccc(-n2ccnc2)nc1,69 to 70
20,CNC(=O)NC1CCCc2sccc21 (centres undefined),183 to 186
21,Oc1ccc(C=C2C3=CC=CCC3=CCc3ccccc32)cc1,56.9
22,Clc1nc2ccccc2cc1C=C1CCCC1,84 to 86
23,O=C(OC(c1ccc(Cl)c2nc3n(c12)CCCN3c1ccc(Cl)cc1Cl)C1CC1)C1CC1 (centres undefined),168 to 170
24,CN1CCN(C2=Nc3ccccc3N(C)c3sc4ccccc4c32)CC1,88 to 90
25,CC(C)c1ccc(N(Cc2cnn(Cc3ccccc3)c2)C(=O)C2CCCc3c(O)cccc32)cc1 (centres undefined),130

row,Compound,melting point [°C]
1,CCCCCCCCCCCCCCOc1cccc(CC(=O)Nc2cccc(CO)c2)c1,86 to 90
2,O=C(c1ccc(-c2ccc3c(c2)CCN(C2CCN(Cc4ccccc4)CC2)C3=O)cc1)N1CCCC1,197 to 198
3,CC1(C)SC(=O)C2OC=CC=C21 (centres undefined),42
4,CC1CC(O)=CC2=CCC3C4CCC(O)C4(C)CCC3C21C (centres undefined),111 to 112
5,CNC(=O)Oc1cccc(C2CCCN2Cc2ccncc2)c1 (centres undefined),92 to 105
6,Cc1cc(SCCc2ccc3sc(-c4ccc(C(F)(F)F)cc4)nc3c2)ccc1CCC(=O)O,108 to 110
7,CCCOc1ccc2c(c1)C(c1ccc(OC)cc1OCC(=O)O)CC2c1ccc2c(c1)OCO2 (centres undefined),177 to 178
8,O=C(O)C1=Cc2cc(Cl)c(-c3ccccc3)cc2OC1C(F)(F)F (centres undefined),185 to 188
9,Cc1cccc(Cl)c1C(=O)N[C@@H](Cc1ccc(-c2c(C)n(C)c(=O)n(C)c2=O)cc1)C(=O)O,238 to 240
10,COc1cc(Nc2nccc(-c3ccncc3)n2)cc(OC)c1OC,205
11,C[C@@H](N(CC(=O)O)C(=O)c1ccc(OCC(F)(F)C(F)F)cc1)[C@](O)(Cn1cncn1)c1ccc(Cl)cc1Cl (relative stereo),192 to 193
12,COC(=O)CCc1oc2ccc(C#N)cc2c1C(=O)c1ccc(OC)cc1,95 to 98
13,O=C(O)CCC(=O)N[C@@H]1CN2C(=O)N(c3cc(Cl)nc(Cl)c3)C(=O)[C@@]2(Cc2ccc(OC(F)(F)F)cc2)C1,102
14,COc1ccc(-c2n[nH]c3ccsc23)cc1,143 to 144
15,CC(C)(C)OC(=O)c1ccc2cncn2c1,77
16,COc1ccc2c(c1)N(CC#N)CCO2,73 to 74
17,CC(=NC(=Nc1ccccc1)N1CCOCC1)NCCO,132 to 134
18,CC(C)Oc1ccc(/C=C/C=C/CO)cc1,91 to 92
19,Oc1ccc2c(c1)CN(Cc1ccc(Cl)cc1)CC2,177 to 178
20,COc1ccc(NC(=O)NCc2cccc3c2CN(C2CCC(=O)NC2=O)C3=O)cc1 (centres undefined),320 to 322
21,O=C(NCCOCc1ccc(C(=O)c2ccccc2)cc1)Nc1ccccc1,129 to 132
22,C=C(c1cn(-c2c(Cl)cc(C(F)(F)F)cc2Cl)nc1C#N)C(F)(F)C(F)(F)F,107 to 108
23,Nc1ccnc2c(NC(=O)c3c(Cl)cccc3Cl)cccc12,265 to 275
24,CC(=O)OC1CSC(Oc2cccc(-c3cccs3)c2)C(OC(C)=O)C1OC(C)=O (centres undefined),122 to 123
25,COC(=O)c1cccc(Nc2nc(N)c(C(=O)c3ccccc3OC)s2)c1,214 to 215

row,Compound,melting point [°C]
1,Clc1ccc(/C=C/c2ccc(Cl)cc2)cc1,176
2,CCn1c(C(O)(C2CC2)C2CC2)nc(-c2ccncc2)c1-c1ccc(Cl)cc1,185 to 188
3,CCCCCCCCCCCCCCc1ccc(N(CC(=O)OC)CC(=O)OC)cc1,160 to 165
4,CCCCCCCNC1=CC(=O)c2c(OC)ccc(OC)c2C1=O,74 to 75
5,Nc1ccc2c3c(cccc13)C(=O)N(O)C2=O,> 360
6,CCCCCCCCCCCCCCCCOC1=C(OCCCCCCCCCCCCCCCC)c2nc3c(Br)sc(Br)c3nc21,71.5
7,CS(=O)(=O)c1ccc(S(=O)(=O)N2CCn3c(c(C(N)=O)c(Cl)c3-c3ccccc3)C2)cc1,258 to 259
8,COc1ccc(-c2nc(CCO)sc2-c2ccc(OC)cc2)cc1,101 to 104
9,O=C(O)c1cccc(-c2cccc([N+](=O)[O-])c2)c1,271 to 272
10,COc1ccc(CN2CCc3c(nc4ccc(OC)cc4c3-c3ccc(OC)cc3)C2=O)cc1,132 to 134
11,COc1ccc(CN(C)CCCc2ccc(NC(=O)c3cccc4c(=O)c5cccc(OC)c5[nH]c34)c(C)c2)cc1OC,154
12,O=C(O)CCC(=O)N[C@H]1C[C@H](C(=O)O)Nc2cc(Cl)cc(Cl)c21 (relative stereo),221 to 223
13,CNS(=O)(=O)c1cn(C)c2cc(C)ccc2c1=O,237 to 240
14,c1csc(-c2nc(COc3ccc(CCCCn4ccnc4)cc3)co2)c1,106 to 107
15,O=C1c2ccccc2CCc2ncsc21,83 to 86
16,CC(=O)CS(=O)(=O)C(c1ccc(Cl)cc1)c1ccc(Cl)cc1,114 to 115
17,COC(=O)[C@H](CCCO)NC(=O)[C@H](Cc1ccccc1)NC(=O)OCc1ccccc1,155 to 157
18,COc1ccc(-c2nnn(-c3ccc(C(F)(F)F)cc3Cl)c2N)cc1,130 to 131
19,CC(C(=O)O)c1ccc2c(c1)C(=O)Cc1ccccc1S2 (centres undefined),130 to 132
20,O=C(O)c1nc2ccc(Oc3ccccc3)cc2cc1OCc1ccccc1,281 to 283
21,CCCCC1=CC(=C(Br)Br)OC1=O,48 to 49
22,CCNc1nc(NCC)nc(-c2ccc(-c3ccccc3)cc2)n1,183 to 184
23,CCCCN(C)C(N)=C(C#N)C(N)=S,163 to 165
24,COC(=O)N1CCC(Nc2ncc3ncnc(Nc4ccc(F)c(Cl)c4)c3n2)CC1,213 to 215
